Data set [1] has as its target T1, OCT1 transport protein (Rattus norvegicus, UniProt Q63089).
T1 sequence (Q63089 1-556): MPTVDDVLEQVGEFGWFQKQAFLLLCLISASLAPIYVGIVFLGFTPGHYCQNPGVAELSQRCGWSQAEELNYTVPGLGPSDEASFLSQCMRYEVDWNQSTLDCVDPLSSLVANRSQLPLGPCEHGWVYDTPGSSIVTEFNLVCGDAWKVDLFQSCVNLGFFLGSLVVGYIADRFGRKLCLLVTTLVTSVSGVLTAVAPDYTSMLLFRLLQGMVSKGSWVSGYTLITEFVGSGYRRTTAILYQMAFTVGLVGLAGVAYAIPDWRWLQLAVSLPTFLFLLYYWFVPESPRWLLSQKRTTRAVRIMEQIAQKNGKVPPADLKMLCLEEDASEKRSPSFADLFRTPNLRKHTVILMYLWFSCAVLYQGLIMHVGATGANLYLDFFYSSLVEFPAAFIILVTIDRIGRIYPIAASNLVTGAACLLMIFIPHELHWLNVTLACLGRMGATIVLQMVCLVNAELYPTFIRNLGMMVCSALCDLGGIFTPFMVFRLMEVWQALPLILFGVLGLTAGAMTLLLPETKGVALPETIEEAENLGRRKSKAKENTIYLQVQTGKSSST
As to conditions: xenopus oocytes expressing oct1.

Data set [2] concerns the target MPP uptake in hepatocytes. To be noted: cultured hepatocytes; cited from earlier work.
In data set [3] the target is T1, OCT1 transport protein. Put plainly: Inhibition of ^14 C-TEA uptake in Xenopus laevis oocytes injected with OCT1 cRNA.
Data set [4] relates to LLC-PK1 cells, basolateral membrane. To be noted: estimated, read-out: Ki for transport of TEA across the basolateral membrane, LLC-PK1 cells; cited from earlier work.
The target in data set [5] is T1, OCT1 transport protein. Put plainly: cell-based.
Data set [6] concerns LLC-PK1 cells, luminal membrane. As to conditions: read-out: Ki for transport of TEA across the luminal membrane, LLC-PK1 cells; cited from earlier work.
Another data set has as its target luminal uptake of TEA. As to conditions: previous investigations, cited from earlier work.
The target in data set [7] is basolateral membrane of rat proximal renal tubules. As to conditions: microperfusion experiments; previous investigations; read-out: Ki for basolateral uptake of TEA into rat proximal renal tubules; cited from earlier work.
The target in data set [8] is T1, OCT1 transport protein. To be noted: 8 ng OCT1 cRNA injected.
The subject of data set [9] is neuronal monoamine transport protein in synaptic vesicles. To be noted: cited from earlier work.
The mark [10] stands for this setting: Ki for inhibition of OCT1-elicited ^14 C-TEA uptake.

Read-outs that look alike come from different tables or passages of the source.

`C[n+]1ccc(-c2ccccc2)cc1` [1-Methyl-4-phenylpyridinium] came in with a Ki at OCT1 transport protein [1] of 13 ± 2 µM.

Regarding `CC[n+]1c(C=C2C=C(C)N=C(c3ccccc3)N2C)ccc2ccccc21` [Cyanine 863, 1-ethyl-2([1,4-dimethyl-2-phenyl-6-pyrimidinylidene]methyl)quinoliniumchloride], the results for the Ki (in data set [2]; on OCT1 transport protein [3] (setting [10])) were 0.1 µM and 0.00013 mM, respectively.

With `CCN1C(=Cc2ccc3ccccc3[n+]2CC)C=Cc2ccccc21` [Decynium 22], the inhibition constant (Ki) was 0.36 ± 0.08 µM on OCT1 transport protein [1]; 0.23 µM in data set [2]; greater than 0.1 µM in data set [4]; 0.4 µM on OCT1 transport protein [5]; 0.0056 µM in data set [6].

On to `CNCCCN1c2ccccc2CCc2ccccc21` [Desipramine], for which, on OCT1 transport protein [3], the “inhibition of OCT1-elicited ^14 C-TEA uptake (in words)” value is listed as “inhibited”.

On OCT1 transport protein [1], `CC(C)C(c1ccccc1)C(O)CC[N+]1(C)CCCCC1` (centres unmarked) [Mepiperphenidol] gave an inhibitory constant (Ki) of 5.2 ± 0.3 µM.

Regarding `C[n+]1cccc(C(N)=O)c1` [N^1 -Methylnicotinamide], the inhibitory constant (Ki) on luminal uptake of TEA (read-out: Ki for luminal uptake of TEA (printed in nM)) is 8.3e+06 nM; on OCT1 transport protein [3] (setting [10]) it was 1 ± 0.2 mM; on OCT1 transport protein [3] (Ki for inhibition of OCT1-elicited ^14 C-TEA uptake (mM, text)) it was roughly 1 mM; in data set [7] it was 540 µM. The “inhibition by NMN of OCT1-induced ^14 C-TEA uptake (in words)” value against OCT1 transport protein [3] was “able to inhibit”. Also, the “inhibition of OCT1-elicited ^14 C-TEA uptake (in words)” value against OCT1 transport protein [3] was “inhibited”.

As for `COc1cc(C(O)CNC(C)C)ccc1O` (centres unmarked) [O-Methylisoprenaline], the results for the inhibition constant Ki (at OCT1 transport protein [1]; in data set [2]) were 43 ± 5 µM and 78 µM, respectively. Besides, on OCT1 transport protein [3] (oocytes injected with OCT1 cRNA), the “inhibition of OCT1-elicited ^14 C-TEA uptake (in words)” value is “inhibited”.

`C=C[C@H]1C[N@@]2CC[C@H]1C[C@H]2[C@H](O)c1ccnc2ccc(OC)cc12` [Quinine]: the “inhibition of expressed ^3 H-MPP uptake (in words)” value against OCT1 transport protein [8] is given as “inhibited”.

On to `COC(=O)[C@H]1[C@H]2C[C@@H]3c4[nH]c5cc(OC)ccc5c4CCN3C[C@H]2C[C@@H](OC(=O)c2cc(OC)c(OC)c(OC)c2)[C@@H]1OC` [Reserpine], for which the “effect on OCT1-elicited transport” value at OCT1 transport protein [3] (5 μM) is given as “no effect”. In addition, the “inhibiting concentration, neuronal monoamine transport protein in synaptic vesicles” value in data set [9] is “sub-nanomolar”.

On to `C[N+](C)(C)C` [Tetramethylammonium], for which the values for the inhibition constant Ki (at luminal uptake of TEA (read-out: Ki for luminal uptake of TEA); in data set [7]) were 7e+07 nM and 1400 µM, respectively. For the same compound, the “inhibition of OCT1-elicited ^14 C-TEA uptake (in words)” value at OCT1 transport protein [3] is given as “inhibited”.

The compound `CCCCC[N+](CCCCC)(CCCCC)CCCCC` [Tetrapentylammonium] gave an inhibitory constant (Ki) at OCT1 transport protein [1] of 0.43 ± 0.09 µM.

What is called Ki is the equilibrium dissociation constant of an inhibitor or competing ligand from its target.
